Values of other authors in PMC5983823, “Screening of Natural Product Derivatives Identifies Two Structurally Related Flavonoids as Potent Quorum Sensing Inhibitors against Gram-Negative Bacteria” (International Journal of Molecular Sciences, 2018).

System: C. violaceum
Set-up: method as in PMID 27626397
Conditions: cited from earlier work

In the case of `CCC(=O)Oc1c(-c2ccccc2Cl)oc2ccccc2c1=O` [Compound 2117, 2-(2-chlorophenyl)-4-oxochromen-3-yl propanoate], the “Anti-QS activity class in earlier screening” value is listed as “among the most active compounds”.
